Results as given in the CheMixHub viscosity set.

Test: xn = mol fraction of the nth substance listed

CCCCCCO + CCCCCC
Settings	viscosity [mPa·s]
308.15 K, 100 kPa, x1 = 0.2999	0.4855
308.15 K, 100 kPa, x1 = 0.3999	0.6019
308.15 K, 100 kPa, x1 = 0.5	0.8102
308.15 K, 100 kPa, x1 = 0.6002	1.08
308.15 K, 100 kPa, x1 = 0.7	1.406
308.15 K, 100 kPa, x1 = 0.8	1.847
308.15 K, 100 kPa, x1 = 0.9096	2.566
313 K, 101.33 kPa, x1 = 0.0995	0.3081
313 K, 101.33 kPa, x1 = 0.1996	0.3673
313 K, 101.33 kPa, x1 = 0.2995	0.4576
313 K, 101.33 kPa, x1 = 0.4012	0.5618
313 K, 101.33 kPa, x1 = 0.5004	0.725
313 K, 101.33 kPa, x1 = 0.6	0.9609
313 K, 101.33 kPa, x1 = 0.6983	1.287
313 K, 101.33 kPa, x1 = 0.7965	1.673
313 K, 101.33 kPa, x1 = 0.8984	2.185
313.15 K, 100 kPa, x1 = 0.0277	0.2857
313.15 K, 100 kPa, x1 = 0.05	0.2883
313.15 K, 100 kPa, x1 = 0.1	0.3109
313.15 K, 100 kPa, x1 = 0.1976	0.3694
313.15 K, 100 kPa, x1 = 0.2999	0.4503
313.15 K, 100 kPa, x1 = 0.3999	0.555
313.15 K, 100 kPa, x1 = 0.5	0.7462
313.15 K, 100 kPa, x1 = 0.6002	0.9846
313.15 K, 100 kPa, x1 = 0.7	1.272
313.15 K, 100 kPa, x1 = 0.8	1.644
313.15 K, 100 kPa, x1 = 0.9096	2.251
313.15 K, 101.33 kPa, x2 = 0.0954	2.219
313.15 K, 101.33 kPa, x2 = 0.1918	1.71
313.15 K, 101.33 kPa, x2 = 0.2892	1.295
313.15 K, 101.33 kPa, x2 = 0.3876	0.9896
313.15 K, 101.33 kPa, x2 = 0.487	0.7581
313.15 K, 101.33 kPa, x2 = 0.5874	0.5894
313.15 K, 101.33 kPa, x2 = 0.689	0.4749
313.15 K, 101.33 kPa, x2 = 0.7915	0.3791
313.15 K, 101.33 kPa, x2 = 0.8952	0.3285
318.15 K, 100 kPa, x1 = 0.0277	0.2746
318.15 K, 100 kPa, x1 = 0.05	0.2766
318.15 K, 100 kPa, x1 = 0.1	0.297
318.15 K, 100 kPa, x1 = 0.1976	0.3511
318.15 K, 100 kPa, x1 = 0.2999	0.4266
318.15 K, 100 kPa, x1 = 0.3999	0.5178
318.15 K, 100 kPa, x1 = 0.5	0.6859
318.15 K, 100 kPa, x1 = 0.6002	0.8985
318.15 K, 100 kPa, x1 = 0.7	1.155
318.15 K, 100 kPa, x1 = 0.8	1.48
318.15 K, 100 kPa, x1 = 0.9096	1.987
323 K, 101.33 kPa, x1 = 0.0995	0.2787
323 K, 101.33 kPa, x1 = 0.1996	0.3303
323 K, 101.33 kPa, x1 = 0.2995	0.4051
323 K, 101.33 kPa, x1 = 0.4012	0.5023
323 K, 101.33 kPa, x1 = 0.5004	0.6113
323 K, 101.33 kPa, x1 = 0.6	0.7992
323 K, 101.33 kPa, x1 = 0.6983	1.049
323 K, 101.33 kPa, x1 = 0.7965	1.34
323 K, 101.33 kPa, x1 = 0.8984	1.721
323.15 K, 100 kPa, x2 = 0.25	1.211
323.15 K, 101.33 kPa, x2 = 0.0954	1.682
323.15 K, 101.33 kPa, x2 = 0.1918	1.32
323.15 K, 101.33 kPa, x2 = 0.2892	1.02
323.15 K, 101.33 kPa, x2 = 0.3876	0.8098
323.15 K, 101.33 kPa, x2 = 0.487	0.6263
323.15 K, 101.33 kPa, x2 = 0.5874	0.5103
323.15 K, 101.33 kPa, x2 = 0.689	0.404
323.15 K, 101.33 kPa, x2 = 0.7915	0.3396
323.15 K, 101.33 kPa, x2 = 0.8952	0.2844
